Source: patent publication US7538092B2, “Pharmaceutically active oligosaccharide conjugates” (Fresenius Kabi Deutschland GmbH, priority 2002, dated 2009)

Experiment: Determination of solubility in water / PBS
Format: physicochemical
Settings: only using solution with extreme pH values

## C[C@@H]1[C@H](O)[C@@H](C)/C=C/C=C/C=C/C=C/C=C/C=C/C=C/[C@H](O[C@@H]2O[C@H](C)[C@@H](O)[C@H](N)[C@@H]2O)C[C@@H]2O[C@](O)(C[C@@H](O)C[C@@H](O)[C@H](O)CC[C@@H](O)C[C@@H](O)CC(=O)O[C@H]1C)C[C@H](O)[C@H]2C(=O)O [Amphotericin B]
  water solubility: around 0.1 mg per ml
